From patent publication US9072709B2 (The Regents of the University of California, priority 2009, dated 2015) come the findings set out here.

Series [1] deals with T1, rhBMP-2 (Homo sapiens, UniProt P12643).
T1 construct: purchased R&D Systems, Minneapolis, Minn
T1 sequence (P12643 283-396): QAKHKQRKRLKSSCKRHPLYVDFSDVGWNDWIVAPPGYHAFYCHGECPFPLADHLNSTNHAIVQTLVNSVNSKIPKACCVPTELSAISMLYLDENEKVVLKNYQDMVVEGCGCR
In words: Surface plasmon resonance kinetic analysis (Biacore X), ligand rhBMP-2. Type of series: binding. How it is done:
(§1) The supernatant was decanted and used for analyses. Protein concentrations were determined suing UV spectroscopy at an absorbance of 280 nm. Extinction coefficients were calculated using ProtParam tool (www.expasy.ch/tools/protparam.html). Flow rates ranged from 5 to 50 μl/min, and injection volumes were 20 to 100 μl. To ensure uniformity, an effort was made to react sufficient ligand to the chip to give a baseline value of about 2500 RU (response units). The kinetic constants ka (on rate, association constant, “recognition”) and kd (off rate, dissociation constant, “stability”) as well as the equilibrium constant KD (equilibrium constant, “affinity”) were determined by a Langmuir analysis using BIAevaluation software (version 3.2) installed on the instrument by the manufacturer.
(In SPR one partner is held on a chip, and binding of the other changes the refractive index at the surface.)

In series [2] the test system is rhTGF-β. The series is described as follows: Surface plasmon resonance kinetic analysis (Biacore X), ligand rhTGF-β. Type of series: binding, human. How it is done: as §1
The target in series [3] is T2, rhOP-1 (rhBMP-7) (Homo sapiens, UniProt P18075).
T2 construct: purchased R&D Systems, Minneapolis, Minn
T2 sequence (P18075 293-431): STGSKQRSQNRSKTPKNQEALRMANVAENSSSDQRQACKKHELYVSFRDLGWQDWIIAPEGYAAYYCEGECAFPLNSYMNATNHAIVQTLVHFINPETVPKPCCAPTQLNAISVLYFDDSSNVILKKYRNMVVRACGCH
The series is described as follows: Surface plasmon resonance kinetic analysis (Biacore X), ligand rhOP-1. Conditions: ligand rhOP-1 (rhBMP-7). The format is binding. How it is done:
as §1

The subject of series [4] is Lewis rats. The series is described as follows: Posterolateral intertransverse process spinal fusion at L4-L5 (radiographs, manual palpation, micro-CT). Type of series: in vivo, rat. Conditions: ACS with 1000 μg BBP, no rhOP-1, 8 weeks. An excerpt:
A total of 120 male Lewis rats (8 weeks of age, 200-260 g, Charles River, Wilmington, Mass.) were divided into 8 groups. Groups differed only by the materials added to the ACS (5×5×13 mm) that were applied to the surgical sites. The preparation of the implants was previously described in detail. (Alanay, et al., The adjunctive effect of a binding peptide on bone morphogenetic protein enhanced bone healing in a rodent model of spinal fusion. Spine 2008; 33:1709-13). Implanted rhOP-1 was obtained from Stryker Biotech, Hopkinton, Mass. […] Animals were sacrificed 8 weeks after surgery with CO2.
Surgical Technique. Animals were anesthetized with 2-2.5% isoflurane administered in oxygen (1 L/min) and the surgical site was shaved and disinfected with alternative betadine and 70% alcohol. Animals were premedicated with 0.15 mg buprenorphine and postoperatively received tapered doses every 12 hours for 2 days. […]
Radiographic Analysis. […] Radiographs were evaluated by 3 independent observers employing the following standardized scale: 0: no fusion; 1: incomplete fusion with bone formation present; and 2: complete fusion. […]
Manual Assessment of Fusion. Eight weeks after surgery, the spines were removed and evaluated by three blinded independent observers for intersegmental motion. […] Spines were scored as either fused or not fused. […]

The target in series [5] is T3, rmGDF-5 (Mus musculus, UniProt P43027).
T3 construct: purchased R&D Systems, Minneapolis, Minn
T3 sequence (P43027 376-495): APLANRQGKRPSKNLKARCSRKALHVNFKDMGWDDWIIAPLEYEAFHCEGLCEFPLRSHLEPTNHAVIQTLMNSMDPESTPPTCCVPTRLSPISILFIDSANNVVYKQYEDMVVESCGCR
The series is described as follows: Surface plasmon resonance kinetic analysis (Biacore X), ligand rmGDF-5. The format is binding. How it is done:
The supernatant was decanted and used for analyses. […] Extinction coefficients were calculated using ProtParam tool (www.expasy.ch/tools/protparam.html). Flow rates ranged from 5 to 50 μl/min, and injection volumes were 20 to 100 μl. To ensure uniformity, an effort was made to react sufficient ligand to the chip to give a baseline value of about 2500 RU (response units).

Series [6] has as its system Swiss-Weber mice. In words: Mouse hindquarter (muscle pouch) ectopic bone formation assay, BBP alone or with rhBMP-2. The format is in vivo. Conditions: for Bone Area / Bone Mineral Content: 21 days, mean SE. How it is done:
The osteogenic activity of material was tested using male Swiss-Weber mice aged 8 to 10 weeks were used (Taconic Farms, Germantown, N.Y.). […] The dried material was placed in a #5 gelatin capsule and sterilized by exposure to chloroform vapor. To conduct the assay, mice were anesthetized using 1% isoflurane delivered in oxygen at 2 l/min through a small animal anesthesia machine (VetEquip, Pleasanton, Calif.). Animals were affixed to a surgery board and the fur over the hindquarters shaved. The skin was cleaned with 70% ethanol and a midline incision made over the spine adjacent to the hindquarters. Blunt dissection with scissors was used to expose the quadriceps muscle on one side. A small pouch was made in the muscle using the point of scissors and the #5 capsule containing the test material was inserted into the pouch. The skin was then closed with three 11 mm Michel surgical clips and the animal returned to its cage for monitoring.
After 21 days the animals were killed and the hindquarter removed. Radiological examination of the specimens was accomplished using a small parts X-Ray cabinet (Faxitron, Wheeling, Ill.). For quantization of bone formation, bone area and the bone mineral content (BMC) of an area of interest encompassing the site of ectopic bone formation was determined using a PIXImus2 small animal densitometer (GE Lunar, Madison, Wis.). Specimens were then placed in buffered formalin and submitted for routine processing for histological examination.

Setting [7] is: BBP 50 μg implanted with 5 μg of rhBMP-2, densitometry.
[8] abbreviates: BBP 500 μg implanted with 5 μg of rhBMP-2, densitometry.

Consider `CSCC[C@@H]1NC(=O)[C@H](CCCNC(=N)N)NC(=O)[C@H](C(C)C)NC(=O)[C@H]([C@@H](C)O)NC(=O)[C@H](CO)NC(=O)[C@H](CCCNC(=N)N)NC(=O)[C@@H](N)CSSC[C@@H](C(=O)O)NC(=O)[C@H](CCCNC(=N)N)NC(=O)[C@H](C(C)C)NC(=O)[C@H](Cc2c[nH]c3ccccc23)NC(=O)[C@H](C(C)C)NC(=O)[C@H](CC(N)=O)NC(=O)[C@H](CCC(N)=O)NC(=O)[C@H](C(C)C)NC(=O)[C@H](CCC(N)=O)NC(=O)[C@H](CCC(=O)O)NC(=O)[C@H](C)NC(=O)[C@H](CO)NC1=O` [BBP], for which the “kd “stability”” value in series [1] (ligand rhBMP-2) came out at 0.00169 s⁻¹; in series [2] (ligand rhTGF-β) it was 0.00175 s⁻¹; in series [3] it was 0.00369 s⁻¹; in series [5] it was 0.00352 s⁻¹. In series [2] (ligand rhTGF-β), the “ka “recognition”” value worked out at 27700 M⁻¹ s⁻¹. For the same molecule, the “KD (kd/ka) “affinity”” value in series [2] (ligand rhTGF-β on CM-5 chip, Langmuir analysis) came out at 68 nM. For the same molecule, the “ectopic calcification in BBP only treatment groups” value in series [4] was “Nor was ectopic calcification observed”. Further, the “induction of spinal fusion by BBP by itself” value in series [4] is on record as “did not induce any degree of fusion”. Besides, the “amount of ectopic bone formed, measured by densitometry, versus identical amount of rhBMP-2 alone” value in series [6] (500 μg of BBP implanted with 5 μg of rhBMP-2) is “consistently greater”. In addition, the “histological section of mouse muscle” value in series [6] (500 μg of BBP in atelocollagen, 21 days after implantation, H & E stain) is “dystrophic calcification primarily associated with intramuscular adipose tissue”. Besides, in series [6] (500 μg of BBP in atelocollagen, mouse hind quarters, 21 days after implantation), the “calcification when implanted alone with carrier (radiogram)” value is listed as “induced calcification”. Further, the “Bone Area” value turned out to be 0.159 ± 0.0606 cm^2 in series [6] (setting [7]) and 0.226 ± 0.0270 cm^2 in series [6] (setting [8]). The “Bone Mineral Content” value is reported as 0.00388 ± 0.0017 g in series [6] (setting [7]) and 0.00528 ± 0.00068 g in series [6] (setting [8]).

B1: spp24: parental protein of BBP, secreted phosphoprotein, 24 kD (protein)
chain: FPVYDYDPASLKEALSASVAKVNSQSLSPYLFRAFRSSVKRVNALDEDSLTMDLEFRIQETTCRRESEADPATCDFQRGYHVPVAVCRSTVRMSAEQVQNVWVRCHWSSSSGSSSSEEMFFGDILGSSTSRNSYLLGLTPDRSRGEPLYEPSREMRRNFPLGNRRYSNPWPRARVNPGFE
With B1, in series [1] (ligand rhBMP-2), the “ka “recognition”” value is 311000 M⁻¹ s⁻¹ and the “kd “stability”” value was found to be 0.0055 s⁻¹. Besides, in series [1] (ligand rhBMP-2 on CM-5 chip, Langmuir analysis), the “KD (kd/ka) “affinity”” value is 17.7 nM.
